The results in this text go back to patent US12419308B2, “Phenylpyrazole insecticide compounds and compositions” (priority 2023, dated 2025).

Structures are written as SMILES.

Series [1] has as its system Human Cryopreserved Hepatocytes. As to the kind of experiment: Metabolic stability in human cryopreserved hepatocytes. The series is classed as in vitro ADME. How it is done: The metabolic stability of the Compounds of Examples 1 and 4 is therefore evaluated to determine whether metabolic degradation results in metabolites of concern.
Briefly, Human Cryopreserved Hepatocytes (Gibco, lot. HUE125) are added to incubation wells in a 96-well assay plate at a density of 500,000 cells/mL in William's E Medium. […] The wells are incubated at 37° C. and stop solution is added to wells at time points: 0, 30, 60, 120, 240 min. The stop solution is ice-cold solution containing 0.5 μM labetalol in acetonitrile (100 μL/well) (2:1, vol/vol). Each time point is tested in triplicate. Analysis is carried out by LC-MS.
• Instrument: QExactive • Column: Luna Omega 1.6 μm polar C18 100 Å (150×2.1 mm) • Column temperature: 40° C. • Column No: 102+pre-column installed • Injection volume: 2 μl • Flux: 0.40 mL/min • Polarity: Negative • Fluent A: water Milli Q+0.1% FA • Fluent B: ACN+0.1% FA • Acquisition method: Full MS+DDS on the IL obtained with MassMetaSite (peak others ON).

Series [2] is described as follows: Egg concentration analysis from topically treated chickens. The series is classed as in vivo. Particulars: eggs from Day 5. As for the experimental part:
One animal is left untreated as a negative control.
A modified and optimized QuEChERS protocol was employed to extract the compounds from eggs. The shell is manually removed, and then each egg is transferred to a clean beaker and homogenized with an electric mixer for small volumes. 5 grams of homogenized egg is put into a 50 mL Falcon tube, and 5 mL of water is added and the samples are shaken for 10 minutes. Next, 10 mL of acetonitrile is added and the samples are shaken again for 10 minutes. Then the roQ salts (4.0 g MgSO4, 1.0 g NaCl, 1.0 SCTD and 0.5 g SCDS, Phenomenex P/N KS08909) are added to each sample, and the mixture is well shaken for 10 minutes. Samples are then centrifuged at 2500 g for 5 minutes at room temperature, and the supernatant is transferred to an HPLC vial for analysis. The same HPLC-MS method is used as described above.
One egg from two chickens is analyzed: one chicken treated with Fipronil and one chicken treated with the Compound of Example 1. The eggs are both from Day 5. The results are shown in the following tables expressed as relative LC-MS peak area: […]

In a further series the test system is Dermanyssus gallinae. As to the kind of experiment: Antiparasitic efficacy on live chickens with natural mite infestation. Type of series: in vivo. The note with it: by day 5 of treatment; 0.25% (w/v) spray, 7.5 mg/kg once daily for 5 days. As for the experimental part:
Two animals are treated with the compound of Example 1, and two animals are treated with Fipronil, while one animal is left untreated as a negative control. The infestation by D. gallinae is monitored by checking the density of mites in particular areas of the animal's bodies (feet, legs, and wings), comparing pre-treatment levels of infestation to post-treatment levels.
When all pests have been eliminated, a 100% pest control capability was achieved. In the case of some chemical products, when the pest was not fully eliminated, the disinfestation capacity was measured by averaging the number of infesting organisms located in three distinct areas of the treated animals, at the beginning of the treatment, and at the end of the treatment.

A short description of series [3]: Plasma concentration analysis in topically treated chickens. The note with it: Compound of Example 1 treatment, topical spray 7.5 mg/kg once daily. As for the experimental part: To explore the therapeutic potential of the compounds of the present disclosure, live chickens with mite infestation (Dermanyssus gallinae) are treated topically with solutions of test compound, with Fipronil as a positive control. Test solutions are prepared by dissolving the test compound in a mixture of 2-butoxyethanol, ethanol, and water (7:2:1) to reach a final concentration of 0.25% (w/v).
The test solution is administered using a mechanical spray pump delivering 0.5 mL of solution per actuation. The test solution is sprayed over the entire surface of the animal's body from a distance of 10-20 centimeters, resulting in direct contact of the solution with the animal's skin. The dosage applied to each animal is 3 mL/kg, equivalent to 7.5 mg/kg (kg live weight). The dosage is achieved using six actuations of the spray per kg of body weight per day. The treatment is administered once daily for 5 days at 24 hours intervals. One animal is left untreated as a negative control.
Blood samples are taken from each animal before the first treatment (T=0), and at 24-hour intervals thereafter. Each egg produced after a treatment is collected for later analysis.
Plasma samples are derived from each blood sample using standard procedures immediately after blood collection. Plasma is stored frozen at −80° C. until the time of analysis. Samples are then thawed at room temperature and extraction is performed by solid phase extraction (SPE) (Strata-X 33. Polymeric Reversed Phase, 60 mg/3 mL, Phenomenex) on an aliquot of sample (100 μl) pretreated for protein precipitation with 300 μl of acetonitrile. After protein precipitation, the samples are well vortexed and then centrifuged (12000 rpm, 10 min, RT). Supernatant is collected and transferred to clean Falcon tubes and diluted with 3 ml of water. Strata-X columns are conditioned with 2 ml of methanol and with 2 ml of water. Samples are loaded after conditioning, and the columns are washed with 2 ml of water, and analytes are eluted with 2 nil of methanol, dried under nitrogen and then resuspended in 100 μl of acetonitrile for mass spectral analysis.
A Thermo Q-exactive mass spectrometer (Thermo Fisher Scientific, Waltham, MA) is used. The LC system, governed by Chromeleon X-press software, consists of a binary pump, a thermostated autosampler, and a column compartment, all Dionex Ultimate 3000 series modules (Thermo Fisher Scientific, Waltham, MA). A volume of 2 μL is injected for each sample. Chromatographic separation of analytes is conducted in reverse-phase chromatography. A Luna Omega 1.6 μm Polar (CIS, 2.1 mm×100 mm) is used, and the mobile phases are (A) water and (B) acetonitrile, both containing 0.1% v/v formic acid. […]
Plasma samples from Day 3 and Day 5 are analyzed.

Where [4] appears, read: human hepatocytes, up to 240 min, 1 μM.

Take `N#Cc1nn(-c2c(Cl)cc(C(F)(F)F)cc2Cl)c2nc(O)cc(C(F)(F)F)c12` [Example 1, 1-(2,6-dichloro-4-(trifluoromethyl)phenyl)-6-hydroxy-4-(trifluoromethyl)-1H-pyrazolo[3,4-b]pyridine-3-carbonitrile]: the “Original compound still present” value in series [1] (after 240 minutes, 1 μM, 500,000 cells/mL, 37° C.) is “approximately 95.5%”. In addition, the “Metabolic stability (in words)” value in series [1] (setting [4]) is “metabolically stable”. The Metabolite peaks observed result in series [1] (setting [4]) was “no particular peaks indicative of metabolites”. Further, the “Accumulation in eggs of treated chickens compared to Fipronil” value in series [2] was “substantially less accumulation in the eggs”. Further, the “Chickens free of mites” value with Dermanyssus gallinae was determined as 100%. Also, the “Plasma concentration of analyte” value in series [3] (Chicken 3, 3 days) is 0.01 ppm; in series [3] (Chicken 3, 5 days), 0.03 ppm; in series [3] (Chicken 4, 3 days) it was 0.7 ppm; in series [3] (Chicken 4, 5 days) it was 1.2 ppm.
